Test results from patent US11566007B2, “Ras inhibitors” (Revolution Medicines, Inc., priority 2019, dated 2023).
Several values for one entry are separate records, joined by “and”; a condition that tells them apart may be missing. Equal values may be shown once. Read-outs that look alike come from different tables or passages of the source.

How the values were obtained:
KRAS WT = KRAS WT (Homo sapiens (Human), UniProt P01116+P62937); assay: Ras-Raf (BRAF RBD) disruption / FRET / MOA assay, KRAS WT; type: biochemical; conditions: read-out: IC50* KRAS WT FRET data
Procedure: (§1) The purpose of this biochemical assay is to measure the ability of test compounds to facilitate ternary complex formation between a nucleotide-loaded Ras isoform and cyclophilin A; the resulting ternary complex disrupts binding to a BRAF^RBD construct, inhibiting Ras signaling through a RAF effector.
(§2) Compound is present in plate wells as a 10-point 3-fold dilution series starting at a final concentration of 30 μM. After incubation at 25° C. for 3 hours, a mixture of Anti-His Eu-W1024 and anti-GST allophycocyanin is then added to assay sample wells at final concentrations of 10 nM and 50 nM, respectively, and the reaction incubated for an additional 1.5 hours. […] Compounds that facilitate disruption of a Ras:RAF complex are identified as those eliciting a decrease in the TR-FRET ratio relative to DMSO control wells.
(§3) This protocol may also be executed substituting other Ras proteins or nucleotides.
(§4) The purpose of this biochemical assay was to measure the ability of test compounds to facilitate ternary complex formation between a nucleotide-loaded K-Ras isoform and Cyclophilin A; the resulting ternary complex disrupts binding to a BRAF^RBD construct, inhibiting K-Ras signaling through a RAF effector. Data is reported as IC50 values.
as §2, with “Compound was” for “Compound is”, “allophycocyanin was” for “allophycocyanin is”, “a K-Ras:RAF” for “a Ras:RAF”, “complex were” for “complex are”

NRAS G12C = NRAS G12C (Homo sapiens (Human), UniProt P01111+P62937, G12C); assay: Ras-Raf (BRAF RBD) disruption / FRET / MOA assay, NRAS G12C; type: biochemical; conditions: read-out: IC50* NRAS G12C FRET data
Procedure: as §1, §2
This protocol may also be executed substituting other Ras proteins or nucleotides. […]

KRAS G12S = KRAS G12S (Homo sapiens (Human), UniProt P01116+P62937, G12S); assay: Ras-Raf (BRAF RBD) disruption / FRET / MOA assay, KRAS G12S; type: biochemical; conditions: Ras-Raf disruption/FRET/MOA assay; class symbols; read-out: KRAS G12S FRET data IC50
Summary of the method: (§5)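 Ras:RAF disruption was scored as a fall in TR-FRET ratio relative to DMSO. Compound ranged in 3-fold steps over 10 points from 30 μM final; incubation ran 3 h at 25° C, detection antibodies a further 1.5 h. Reported as IC50.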

KRAS G12V = KRAS G12V (Homo sapiens (Human), UniProt P01116+P62937, G12V); assay: Ras-Raf (BRAF RBD) disruption / FRET / MOA assay, KRAS G12V; type: biochemical; conditions: read-out: IC50* KRAS G12V FRET data
Procedure: as §1, §2, §3, §4
as §2, with “Compound was” for “Compound is”, “allophycocyanin was” for “allophycocyanin is”, “a K-Ras:RAF” for “a Ras:RAF”, “complex were” for “complex are”

NCI-H358 (K-Ras G12C) = assay: CellTiter-Glo cell viability assay, NCI-H358; type: cell-based, human; conditions: NCI-H358, 5-day treatment, class symbols, read-out: Additional H358 Cell Viability assay data (K-Ras G12C, IC50)
Summary of the method: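 Luminescent viability readout on day 5 after direct compound addition to plated cells; plates sat ~30 min at room temperature before reading. Values expressed as percent of mean DMSO signal, curves fit with a four-parameter logistic model.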

K-Ras G13C = K-Ras G13C (Homo sapiens (Human), UniProt P01116+P62937, G13C); assay: Ras-Raf (BRAF RBD) disruption / FRET / MOA assay, KRAS G13C; type: biochemical; conditions: KRAS G13C; Ras-Raf disruption/FRET/MOA assay; read-out: IC50* KRAS G13C FRET data
Procedure: as §1, §2, §3, §4
as §2, with “Compound was” for “Compound is”, “allophycocyanin was” for “allophycocyanin is”, “a K-Ras:RAF” for “a Ras:RAF”, “complex were” for “complex are”

KRAS G12D = KRAS G12D (Homo sapiens (Human), UniProt P01116+P62937, G12D); assay: Ras-Raf (BRAF RBD) disruption / FRET / MOA assay, KRAS G12D; type: biochemical; conditions: Ras-Raf disruption/FRET/MOA assay; class symbols; read-out: KRAS G12D FRET data IC50
Summary of the method: as §5

K-Ras G12C = K-Ras G12C (Homo sapiens (Human), UniProt P01116+P62937, G12C); assay: Ras-Raf (BRAF RBD) disruption / FRET / MOA assay, KRAS G12C; type: biochemical; conditions: KRAS G12C; Ras-Raf disruption/FRET/MOA assay; read-out: IC50* KRAS G12C FRET data
Procedure: as §1, §2, §3, §4
as §2, with “Compound was” for “Compound is”, “allophycocyanin was” for “allophycocyanin is”, “a K-Ras:RAF” for “a Ras:RAF”, “complex were” for “complex are”

KRAS G13D = KRAS G13D (Homo sapiens (Human), UniProt P01116+P62937, G13D); assay: Ras-Raf (BRAF RBD) disruption / FRET / MOA assay, KRAS G13D; type: biochemical; conditions: read-out: IC50* KRAS G13D FRET data
Procedure: as §1, §2, §3, §4
as §2, with “Compound was” for “Compound is”, “allophycocyanin was” for “allophycocyanin is”, “a K-Ras:RAF” for “a Ras:RAF”, “complex were” for “complex are”

[1] = test system: NCI-H358 cells (K-Ras G12C); assay: Potency assay: pERK in NCI-H358 cells; type: cell-based, human; conditions: Homo sapiens, NCI-H358; H358 KRAS G12C; read-out: pERK EC50
Summary of the method: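 Compounds are dosed as ten 3-fold dilutions from a 10 mM DMSO stock, in duplicate, and left on cells for 4 h at 37 °C, 5% CO2. Phospho-ERK1/2 is then quantified by AlphaLISA SureFire Ultra or In-Cell Western, and IC50 is derived from a 4-parameter sigmoid against log concentration.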

Sequence of KRAS WT (P01116-2 other isoform, or with tags, fused parts or gaps): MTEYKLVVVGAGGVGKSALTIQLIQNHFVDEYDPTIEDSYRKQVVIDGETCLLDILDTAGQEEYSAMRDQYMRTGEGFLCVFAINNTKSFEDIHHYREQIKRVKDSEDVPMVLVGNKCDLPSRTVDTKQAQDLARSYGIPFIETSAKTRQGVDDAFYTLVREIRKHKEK
Sequence of KRAS WT (P62937 whole entry, canonical isoform): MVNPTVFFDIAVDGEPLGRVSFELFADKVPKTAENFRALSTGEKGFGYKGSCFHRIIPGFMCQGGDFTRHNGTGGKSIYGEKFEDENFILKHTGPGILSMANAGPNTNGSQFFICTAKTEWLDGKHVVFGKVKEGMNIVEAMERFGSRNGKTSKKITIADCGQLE
Sequence of KRAS G12D (P01116-2 other isoform, or with tags, fused parts or gaps G12D): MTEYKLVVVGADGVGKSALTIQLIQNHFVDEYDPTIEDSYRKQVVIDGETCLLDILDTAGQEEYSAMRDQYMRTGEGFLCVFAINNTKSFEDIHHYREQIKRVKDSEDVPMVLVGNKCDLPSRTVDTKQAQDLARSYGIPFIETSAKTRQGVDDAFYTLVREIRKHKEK
Sequence of KRAS G12D (P62937 whole entry): as the sequence (P62937 whole entry, canonical isoform) above
Sequence of NRAS G12C (P01111 whole entry G12C): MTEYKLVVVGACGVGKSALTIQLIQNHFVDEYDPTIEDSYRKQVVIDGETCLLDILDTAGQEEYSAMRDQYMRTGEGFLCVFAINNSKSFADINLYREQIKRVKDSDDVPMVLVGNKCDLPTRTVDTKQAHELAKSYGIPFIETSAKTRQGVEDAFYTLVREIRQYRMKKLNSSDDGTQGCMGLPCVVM
Sequence of NRAS G12C (P62937 whole entry): as the sequence (P62937 whole entry, canonical isoform) above
Sequence of K-Ras G12C (P01116-2 other isoform, or with tags, fused parts or gaps G12C): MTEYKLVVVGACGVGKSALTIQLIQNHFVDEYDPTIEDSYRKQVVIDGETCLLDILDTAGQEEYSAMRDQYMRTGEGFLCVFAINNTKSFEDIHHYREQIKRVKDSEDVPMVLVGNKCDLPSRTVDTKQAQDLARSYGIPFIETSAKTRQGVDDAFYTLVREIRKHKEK
Sequence of K-Ras G12C (P62937 whole entry): as the sequence (P62937 whole entry, canonical isoform) above
Sequence of KRAS G12S (P01116-2 other isoform, or with tags, fused parts or gaps G12S): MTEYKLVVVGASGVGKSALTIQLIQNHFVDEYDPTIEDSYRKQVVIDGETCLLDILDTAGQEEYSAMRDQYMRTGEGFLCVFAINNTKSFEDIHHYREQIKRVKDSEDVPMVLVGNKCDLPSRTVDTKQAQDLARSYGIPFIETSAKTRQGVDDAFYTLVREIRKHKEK
Sequence of KRAS G12S (P62937 whole entry): as the sequence (P62937 whole entry, canonical isoform) above
Sequence of KRAS G13D (P01116-2 other isoform, or with tags, fused parts or gaps G13D): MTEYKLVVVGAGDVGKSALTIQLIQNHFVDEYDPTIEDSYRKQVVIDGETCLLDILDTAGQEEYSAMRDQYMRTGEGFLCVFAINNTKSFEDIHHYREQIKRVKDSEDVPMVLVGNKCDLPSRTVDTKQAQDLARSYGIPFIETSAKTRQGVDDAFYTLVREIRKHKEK
Sequence of KRAS G13D (P62937 whole entry): as the sequence (P62937 whole entry, canonical isoform) above
Sequence of K-Ras G13C (P01116-2 other isoform, or with tags, fused parts or gaps G13C): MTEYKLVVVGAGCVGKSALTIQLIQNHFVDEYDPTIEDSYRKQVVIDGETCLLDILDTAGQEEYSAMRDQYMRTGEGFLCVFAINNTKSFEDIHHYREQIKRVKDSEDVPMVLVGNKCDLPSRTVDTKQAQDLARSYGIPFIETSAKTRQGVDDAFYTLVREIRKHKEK
Sequence of K-Ras G13C (P62937 whole entry): as the sequence (P62937 whole entry, canonical isoform) above
Sequence of KRAS G12V (P01116-2 other isoform, or with tags, fused parts or gaps G12V): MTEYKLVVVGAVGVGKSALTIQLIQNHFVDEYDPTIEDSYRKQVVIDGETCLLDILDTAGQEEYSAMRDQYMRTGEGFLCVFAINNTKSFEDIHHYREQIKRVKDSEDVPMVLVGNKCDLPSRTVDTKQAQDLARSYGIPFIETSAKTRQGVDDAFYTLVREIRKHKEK
Sequence of KRAS G12V (P62937 whole entry): as the sequence (P62937 whole entry, canonical isoform) above

C=CC(=O)N1CCC(C(=O)N(C)[C@H](C(=O)N[C@H]2CCC(=O)N(C)Cc3ccc4c(c3)c(c(-c3cccnc3[C@H](C)OC)n4CC)CC(C)(C)COC(=O)[C@@H]3CCCN(N3)C2=O)C(C)C)C1 (atropisomer, axis not shown) [Example A500]
IC50 (KRAS WT): > 10000 nM | IC50 (NRAS G12C): > 10000 nM | IC50 (KRAS G12S): > 10000 nM | IC50 (KRAS G12V): > 10000 nM | IC50 (NCI-H358 (K-Ras G12C); Homo sapiens, NCI-H358, 120 h): > 1000 nM | IC50 (K-Ras G13C): > 10000 nM | IC50 (KRAS G12D): > 10000 nM

C=CC(=O)N1CC[C@H](C(=O)N(C)[C@H](C(=O)N[C@H]2Cc3cccc(c3)-c3ccc4c(c3)c(c(-c3cc(C5=CCN(C)CC5)cnc3[C@H](C)OC)n4CC)CC(C)(C)COC(=O)[C@@H]3CCCN(N3)C2=O)C(C)C)C1 (atropisomer, axis not shown) [Example A514]
IC50 (KRAS WT): > 10000 nM | IC50 (NRAS G12C): 1000 to 10000 nM | IC50 (K-Ras G12C): 1000 to 10000 nM | IC50 (KRAS G13D): > 10000 nM | IC50 (KRAS G12S): > 10000 nM | IC50 (KRAS G12V): > 10000 nM | IC50 (K-Ras G13C): 1000 to 10000 nM | IC50 (KRAS G12D): > 10000 nM

C=CC(=O)N1CC[C@H](C(=O)N(C)[C@H](C(=O)NC2C[C@H]3CN(CCCO3)c3ccc4c(c3)c(c(-c3cccnc3[C@H](C)OC)n4CC)CC(C)(C)COC(=O)[C@@H]3CCCN(N3)C2=O)C(C)C)C1 (single isomer, unassigned) [Example A405]
IC50 (KRAS WT): > 10000 nM | IC50 (NRAS G12C): > 10000 nM | IC50 (KRAS G13D): > 10000 nM | IC50 (KRAS G12S): > 10000 nM | IC50 (KRAS G12V): > 10000 nM | IC50 (NCI-H358 (K-Ras G12C); Homo sapiens, NCI-H358, 120 h): > 1000 nM | IC50 (K-Ras G13C): > 10000 nM | IC50 (KRAS G12D): > 10000 nM

CCn1c(-c2cccnc2COC)c2c3cc(ccc31)-c1cc(O)cc(c1)C[C@H](NC(=O)[C@H](C(C)C)N(C)C(=O)[C@H]1CCN(C(=O)/C=C/CN(C)C)C1)C(=O)N1CCC[C@H](N1)C(=O)OCC(C)(C)C2 [Example A054]
IC50 (KRAS WT): 100 to 1000 nM | IC50 (NRAS G12C): 10 to 100 nM | IC50 (K-Ras G12C): 10 to 100 nM | IC50 (KRAS G13D): 100 to 1000 nM | IC50 (KRAS G12S): 100 to 1000 nM | IC50 (KRAS G12V): 100 to 1000 nM | IC50 (K-Ras G13C): 100 to 1000 nM | IC50 (KRAS G12D): 100 to 1000 nM

CCn1c(-c2cccnc2COC)c2c3cc(ccc31)-c1cc(O)cc(c1)C[C@H](NC(=O)[C@H](C(C)C)N(C)C(=O)[C@H]1CCN(C(=O)C#CCN3CCOCC3)C1)C(=O)N1CCC[C@H](N1)C(=O)OCC(C)(C)C2 [Example A095]
IC50 (KRAS WT): 1000 to 10000 nM | IC50 (KRAS G13D): 1000 to 10000 nM | IC50 (KRAS G12S): 100 to 1000 nM | IC50 (KRAS G12V): 100 to 1000 nM | IC50 (K-Ras G13C): 100 to 1000 nM | IC50 (KRAS G12D): > 10000 nM

CCn1c(-c2cccnc2[C@H](C)OC)c2c3cc(ccc31)-c1cc(O)cc(c1)C[C@H](NC(=O)[C@H](C(C)C)N(C)C(=O)[C@H]1CCN(C(=O)C#CC3(N(C)C)COC3)C1)C(=O)N1CCC[C@H](N1)C(=O)OCC(C)(C)C2 [Example A246]
IC50 (KRAS WT): 100 to 1000 nM | IC50 (KRAS G13D): 100 to 1000 nM | IC50 (KRAS G12S): 100 to 1000 nM | IC50 (KRAS G12V): 100 to 1000 nM | IC50 (NCI-H358 (K-Ras G12C); Homo sapiens, NCI-H358, 120 h): < 10 nM | IC50 (K-Ras G13C): 10 to 100 nM | IC50 (KRAS G12D): 1000 to 10000 nM | EC50 [1]: < 5000 nM

C=CC(=O)Nc1cnc(C(=O)N(C)[C@H](C(=O)N[C@H]2Cc3cc(O)cc(c3)-c3ccc4c(c3)c(c(-c3cccnc3[C@H](C)OC)n4CC)CC(C)(C)COC(=O)[C@@H]3CCCN(N3)C2=O)C(C)C)n1C [Example A334]
IC50 (KRAS WT): 100 to 1000 nM and 10 to 100 nM | IC50 (NRAS G12C): < 10 nM and 10 to 100 nM | IC50 (K-Ras G12C): < 10 nM and 10 to 100 nM | IC50 (KRAS G12S): 10 to 100 nM | IC50 (KRAS G12V): 100 to 1000 nM and 10 to 100 nM | IC50 (NCI-H358 (K-Ras G12C)): < 10 nM | IC50 (K-Ras G13C): 10 to 100 nM and < 10 nM | IC50 (KRAS G12D): 100 to 1000 nM | EC50 [1]: < 5000 nM
